From US20120058997A1, “IMIDAZO[1,2-B]PYRIDAZINE AND PYRAZOLO[1,5-A]PYRIMIDINE DERIVATIVES AND THEIR USE AS PROTEIN KINASE INHIBITORS” (SuperGen, Inc., priority 2006, published 2012) come the findings set out here.

Assay [1] relates to K562 Cells. In words: Cell growth inhibition, Cell-Titer-Glo, 96 hours. Format: cell-based. Particulars: read-out: IC50 (K562).
The subject of assay [2] is phospho-Bad (S112) in MV-4-11 cells. As to the kind of experiment: phospho-Bad (S112) Western blot in MV-4-11 cells. Format: cell-based. The following applies: Homo sapiens, MV4-11, 1 hr treatment, HCl salts, read-out: EC50 on phosphorylation of Bad (S112). The text has this: One illustrative manner to determine the effect of Pim-1 inhibitors on the activity of the Pim-1 kinase is to measure the phosphorylation levels of the protein Bad at serine residue 112 (S112) (phospho-Bad or pBad). Pim-1 is known to cause the phosphorylation of Bad at S112 in order to inactivate the protein and inhibit its association with anti-apoptotic Bcl-2 family members, thereby allowing these Bcl-2 family members to further inhibit apoptotic signals.
Briefly, MV-4-11 (biphenotypic B myelomonocytic leukemia) cells were plated into T25 flasks in serum free media (SFM) at 1.5×10^5 cells/ml and allowed to grow for 24 hrs. After 24 hrs Pim-1 inhibitors at 10, 5, 1, 0.5, 0.1, or 0.01 μM concentrations were added to individual flasks. Treatment with the Pim-1 inhibitors continued for a duration of 1 hr. Cells were harvested after the 1 hr treatment and cell lysates were made from each sample. Equal amounts of total protein from the lysates were loaded onto a 10% Tris-glycine gel (Invitrogen) for SDS-PAGE analysis. […] In order to calculate the EC50 of inhibitors on phosphorylation of Bad (S112), the levels of total Bad protein were determined. […] Densitometry was used to quantitate the levels of each band on the Western blots and used to determine the EC50 of the Pim-1 inhibitors to alter the phospho-Bad protein levels.
(A western blot detects proteins with antibodies after separation by electrophoresis.)

Assay [3] has as its target Pim-1 kinase (Homo sapiens, UniProt P11309). As to the kind of experiment: Promega Kinase-Glo Pim-1 kinase inhibition assay.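 Also: in vitro Pim-1 reaction run 2 h at 30 °C, then leftover ATP measured by luciferase luminescence, where signal falls as kinase activity rises.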 The format is biochemical. The following applies: Table VIII (results), read-out: IC50(Kinase). A general note: Kinase-Glo measures the ATP left after a reaction by luminescence.
Assay [4] concerns the target CDK2 (Homo sapiens, UniProt P24941). As to the kind of experiment: Radiometric kinase panel selectivity assay. The format is biochemical. Details: dose or concentration left out as unconfirmed.
The target of assay [5] is T1, Nek2 (Homo sapiens, UniProt P51955).
T1 sequence (P51955 1-445): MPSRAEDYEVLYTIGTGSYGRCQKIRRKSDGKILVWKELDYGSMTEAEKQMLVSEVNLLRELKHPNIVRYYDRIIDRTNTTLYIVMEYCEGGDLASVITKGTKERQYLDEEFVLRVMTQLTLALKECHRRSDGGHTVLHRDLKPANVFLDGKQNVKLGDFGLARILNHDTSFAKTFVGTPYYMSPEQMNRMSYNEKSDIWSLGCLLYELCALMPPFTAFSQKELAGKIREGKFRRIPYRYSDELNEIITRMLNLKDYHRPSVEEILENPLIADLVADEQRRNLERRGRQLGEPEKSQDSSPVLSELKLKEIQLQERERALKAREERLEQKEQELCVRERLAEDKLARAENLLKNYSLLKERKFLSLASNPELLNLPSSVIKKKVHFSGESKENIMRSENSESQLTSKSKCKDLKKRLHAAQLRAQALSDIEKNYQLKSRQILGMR
As to the kind of experiment: Radiometric kinase panel selectivity assay. The format is biochemical. Further details: dose or concentration left out as unconfirmed.

Assay [6] concerns PC-3 Cells. As to the kind of experiment: Cell growth inhibition, Cell-Titer-Glo, 96 hours. The format is cell-based. The following applies: Homo sapiens, Table IX (results), read-out: IC50 (PC-3).
Assay [7] concerns the target Able (Homo sapiens, UniProt P00519). As to the kind of experiment: Radiometric kinase panel selectivity assay. The format is biochemical. Details: dose or concentration left out as unconfirmed.
For assay [8], the target named is Plk3 (Homo sapiens, UniProt Q9H4B4). As to the kind of experiment: Radiometric kinase panel selectivity assay. Format: biochemical. Further details: dose or concentration left out as unconfirmed.
Assay [9] deals with c-Kit (Homo sapiens, UniProt P10721). As to the kind of experiment: Radiometric kinase panel selectivity assay. The format is biochemical. Details: dose or concentration left out as unconfirmed.
Assay [10] addresses EGFR (Homo sapiens, UniProt P00533). In words: Radiometric kinase panel selectivity assay. Details: dose or concentration left out as unconfirmed. Format: biochemical.
The target in assay [11] is Jak2 (Homo sapiens, UniProt O60674). As to the kind of experiment: Radiometric kinase panel selectivity assay. Format: biochemical. Further details: dose or concentration left out as unconfirmed.
The target of assay [12] is CDK1 (Homo sapiens, UniProt P06493). As to the kind of experiment: Radiometric kinase panel selectivity assay. The format is biochemical. Details: dose or concentration left out as unconfirmed.
For assay [13], the target named is T2, Aurora-A (Homo sapiens, UniProt O14965).
T2 sequence (O14965 1-403): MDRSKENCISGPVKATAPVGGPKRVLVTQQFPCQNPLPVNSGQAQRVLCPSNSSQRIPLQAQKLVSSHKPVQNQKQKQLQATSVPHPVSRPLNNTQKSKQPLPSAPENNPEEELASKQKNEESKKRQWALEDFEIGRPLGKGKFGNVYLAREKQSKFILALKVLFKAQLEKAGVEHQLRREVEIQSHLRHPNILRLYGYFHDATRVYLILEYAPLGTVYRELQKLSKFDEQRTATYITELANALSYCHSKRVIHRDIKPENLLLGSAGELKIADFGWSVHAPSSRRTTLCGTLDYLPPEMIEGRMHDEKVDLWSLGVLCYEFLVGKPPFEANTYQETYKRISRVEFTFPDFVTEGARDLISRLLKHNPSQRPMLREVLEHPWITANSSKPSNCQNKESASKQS
In words: Radiometric kinase panel selectivity assay. The format is biochemical. Details: dose or concentration left out as unconfirmed.

Where [14] appears, read: Homo sapiens, K562, Table IX (results).

Molecules are shown by their SMILES. Where “and” joins values, the source holds several entries; their conditions need not be identical. Equal values may be shown once. Read-outs that look alike come from different tables or passages of the source.
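For IC50 (K562) in this document: luminescent ATP signal as an index of viable cell number, drug-treated versus cells given an equal volume of DMSO vehicle.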
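For IC50 (PC-3) in this document: luciferase luminescence reflecting cellular ATP, used as a proxy for cell number, with compound-treated cells compared against DMSO vehicle control wells.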

Pim-1 kinase, sequence (P11309 whole entry): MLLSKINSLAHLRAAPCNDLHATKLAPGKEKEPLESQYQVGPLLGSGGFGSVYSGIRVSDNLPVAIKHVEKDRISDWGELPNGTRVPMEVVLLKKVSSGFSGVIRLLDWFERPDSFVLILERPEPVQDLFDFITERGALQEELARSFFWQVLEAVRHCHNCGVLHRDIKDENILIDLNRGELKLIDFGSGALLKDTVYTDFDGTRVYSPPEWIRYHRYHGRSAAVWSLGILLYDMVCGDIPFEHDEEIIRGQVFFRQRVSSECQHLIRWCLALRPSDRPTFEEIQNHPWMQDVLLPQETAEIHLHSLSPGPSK
EGFR, sequence (P00533 25-1210, species assumed): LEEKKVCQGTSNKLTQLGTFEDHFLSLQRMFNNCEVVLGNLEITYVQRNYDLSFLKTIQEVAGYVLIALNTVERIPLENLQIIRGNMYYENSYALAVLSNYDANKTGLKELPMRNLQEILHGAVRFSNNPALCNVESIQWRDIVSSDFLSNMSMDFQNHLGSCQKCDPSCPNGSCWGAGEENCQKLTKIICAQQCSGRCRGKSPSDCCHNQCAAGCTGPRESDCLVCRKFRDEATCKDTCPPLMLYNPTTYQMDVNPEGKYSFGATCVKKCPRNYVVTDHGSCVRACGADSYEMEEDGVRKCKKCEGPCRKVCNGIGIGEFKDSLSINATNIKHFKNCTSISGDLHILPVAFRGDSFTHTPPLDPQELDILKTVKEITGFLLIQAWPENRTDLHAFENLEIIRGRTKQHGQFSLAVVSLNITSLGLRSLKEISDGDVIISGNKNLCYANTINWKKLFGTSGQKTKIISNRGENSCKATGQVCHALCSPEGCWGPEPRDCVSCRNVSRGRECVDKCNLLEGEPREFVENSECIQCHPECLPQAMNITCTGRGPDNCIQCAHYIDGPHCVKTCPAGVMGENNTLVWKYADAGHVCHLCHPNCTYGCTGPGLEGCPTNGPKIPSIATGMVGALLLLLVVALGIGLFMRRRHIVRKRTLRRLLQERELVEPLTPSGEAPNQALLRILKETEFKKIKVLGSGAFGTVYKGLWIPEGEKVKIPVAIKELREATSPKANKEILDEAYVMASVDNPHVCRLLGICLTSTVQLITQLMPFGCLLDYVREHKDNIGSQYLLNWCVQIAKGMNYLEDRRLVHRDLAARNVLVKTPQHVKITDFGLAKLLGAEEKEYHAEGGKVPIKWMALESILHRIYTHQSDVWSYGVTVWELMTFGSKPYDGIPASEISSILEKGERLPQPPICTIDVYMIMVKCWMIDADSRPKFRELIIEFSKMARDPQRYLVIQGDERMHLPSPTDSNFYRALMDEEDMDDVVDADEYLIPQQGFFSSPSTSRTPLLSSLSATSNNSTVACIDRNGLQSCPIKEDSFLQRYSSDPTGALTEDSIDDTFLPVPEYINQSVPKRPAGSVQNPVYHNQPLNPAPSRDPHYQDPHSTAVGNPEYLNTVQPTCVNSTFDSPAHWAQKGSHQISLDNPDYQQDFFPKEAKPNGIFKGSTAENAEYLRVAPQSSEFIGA
Plk3, sequence (Q9H4B4 whole entry, species assumed): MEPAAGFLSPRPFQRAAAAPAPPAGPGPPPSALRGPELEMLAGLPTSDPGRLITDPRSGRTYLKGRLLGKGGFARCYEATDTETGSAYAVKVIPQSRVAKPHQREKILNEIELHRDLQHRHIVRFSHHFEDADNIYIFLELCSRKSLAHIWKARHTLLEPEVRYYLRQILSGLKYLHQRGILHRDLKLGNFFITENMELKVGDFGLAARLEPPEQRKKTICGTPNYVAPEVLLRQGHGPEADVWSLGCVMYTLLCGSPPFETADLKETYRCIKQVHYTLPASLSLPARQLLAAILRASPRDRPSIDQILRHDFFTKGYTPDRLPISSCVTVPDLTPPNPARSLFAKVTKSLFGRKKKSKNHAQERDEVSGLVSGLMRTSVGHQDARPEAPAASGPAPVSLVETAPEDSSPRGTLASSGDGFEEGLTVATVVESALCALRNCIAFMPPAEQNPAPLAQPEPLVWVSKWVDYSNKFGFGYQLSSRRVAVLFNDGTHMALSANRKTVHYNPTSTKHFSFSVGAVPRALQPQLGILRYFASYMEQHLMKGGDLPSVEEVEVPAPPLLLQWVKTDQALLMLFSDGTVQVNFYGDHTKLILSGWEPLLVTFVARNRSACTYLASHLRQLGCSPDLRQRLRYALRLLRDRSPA
Able, sequence (P00519 whole entry): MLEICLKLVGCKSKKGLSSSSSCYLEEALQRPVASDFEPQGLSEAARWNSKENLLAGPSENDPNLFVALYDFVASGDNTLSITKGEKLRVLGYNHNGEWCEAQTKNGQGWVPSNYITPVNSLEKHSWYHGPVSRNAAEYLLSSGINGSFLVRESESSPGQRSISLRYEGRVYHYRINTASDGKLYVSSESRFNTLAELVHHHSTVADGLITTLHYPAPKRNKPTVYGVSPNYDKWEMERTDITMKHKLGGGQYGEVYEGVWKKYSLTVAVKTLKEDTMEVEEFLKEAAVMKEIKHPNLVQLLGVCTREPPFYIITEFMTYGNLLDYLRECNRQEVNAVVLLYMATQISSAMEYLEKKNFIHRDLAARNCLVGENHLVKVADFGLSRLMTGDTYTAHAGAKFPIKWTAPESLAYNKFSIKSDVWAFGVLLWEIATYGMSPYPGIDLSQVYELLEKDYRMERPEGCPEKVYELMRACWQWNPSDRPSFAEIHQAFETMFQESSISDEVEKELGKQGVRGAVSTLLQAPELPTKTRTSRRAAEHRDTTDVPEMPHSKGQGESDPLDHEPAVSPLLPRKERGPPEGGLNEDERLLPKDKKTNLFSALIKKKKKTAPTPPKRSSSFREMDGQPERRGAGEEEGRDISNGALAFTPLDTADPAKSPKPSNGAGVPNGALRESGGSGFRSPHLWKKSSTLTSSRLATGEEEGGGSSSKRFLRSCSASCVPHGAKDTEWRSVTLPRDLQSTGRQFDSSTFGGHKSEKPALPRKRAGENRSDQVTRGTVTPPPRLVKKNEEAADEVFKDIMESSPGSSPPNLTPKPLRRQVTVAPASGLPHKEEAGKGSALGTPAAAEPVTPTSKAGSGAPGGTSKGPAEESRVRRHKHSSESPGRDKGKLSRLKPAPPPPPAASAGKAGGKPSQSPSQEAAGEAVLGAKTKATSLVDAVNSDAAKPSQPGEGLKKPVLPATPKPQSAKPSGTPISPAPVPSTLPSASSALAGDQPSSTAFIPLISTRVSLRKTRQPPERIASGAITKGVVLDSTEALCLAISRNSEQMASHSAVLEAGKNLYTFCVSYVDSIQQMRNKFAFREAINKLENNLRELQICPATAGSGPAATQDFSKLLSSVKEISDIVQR
Jak2, sequence (O60674 whole entry, species assumed): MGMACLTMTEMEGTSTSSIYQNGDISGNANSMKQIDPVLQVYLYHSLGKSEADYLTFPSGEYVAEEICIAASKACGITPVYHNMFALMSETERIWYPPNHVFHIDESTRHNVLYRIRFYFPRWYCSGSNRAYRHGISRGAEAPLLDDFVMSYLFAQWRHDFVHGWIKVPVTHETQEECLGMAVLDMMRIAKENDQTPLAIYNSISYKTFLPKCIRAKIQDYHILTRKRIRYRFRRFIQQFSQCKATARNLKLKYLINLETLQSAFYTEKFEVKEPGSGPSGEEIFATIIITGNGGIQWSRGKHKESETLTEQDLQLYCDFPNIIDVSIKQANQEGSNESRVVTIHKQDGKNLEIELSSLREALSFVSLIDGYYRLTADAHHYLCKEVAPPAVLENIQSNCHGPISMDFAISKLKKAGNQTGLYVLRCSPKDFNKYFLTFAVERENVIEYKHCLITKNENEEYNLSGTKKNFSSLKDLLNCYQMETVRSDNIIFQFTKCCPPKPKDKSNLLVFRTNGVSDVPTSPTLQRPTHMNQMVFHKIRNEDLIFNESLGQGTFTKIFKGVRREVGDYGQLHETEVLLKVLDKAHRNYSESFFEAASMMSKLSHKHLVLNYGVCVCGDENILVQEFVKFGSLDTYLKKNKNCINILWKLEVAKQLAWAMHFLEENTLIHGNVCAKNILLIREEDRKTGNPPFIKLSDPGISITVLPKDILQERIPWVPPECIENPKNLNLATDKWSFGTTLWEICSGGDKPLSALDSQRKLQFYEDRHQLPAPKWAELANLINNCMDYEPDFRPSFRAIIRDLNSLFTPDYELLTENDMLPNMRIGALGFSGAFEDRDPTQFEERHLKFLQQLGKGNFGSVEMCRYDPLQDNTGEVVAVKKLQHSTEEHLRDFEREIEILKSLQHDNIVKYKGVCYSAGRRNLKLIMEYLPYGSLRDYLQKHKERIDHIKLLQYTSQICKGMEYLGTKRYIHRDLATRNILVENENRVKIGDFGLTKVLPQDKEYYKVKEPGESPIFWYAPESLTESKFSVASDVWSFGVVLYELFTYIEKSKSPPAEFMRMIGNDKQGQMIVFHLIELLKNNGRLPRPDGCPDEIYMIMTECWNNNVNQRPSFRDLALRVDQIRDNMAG

Take `CC[C@H](N)COc1ccc2ncc(-c3cccc(OC(F)(F)F)c3)n2n1` [Compound 7-19, (S)-1-(3-(3-(trifluoromethoxy)phenyl)imidazo[1,2-b]pyridazin-6-yloxy)butan-2-amine]: the IC50 (in general, the midpoint of a concentration-inhibition curve) turned out to be 5.84 µM in [1] (setting [14]) and 293 nM in assay [3] (values in nM). The EC50 (commonly the concentration giving half of the maximal effect) in assay [2] came to 0.635 µM.
Take `CN1CCC(CNc2ccc3ncc(-c4cccc(OC(F)(F)F)c4)n3n2)CC1` [Compound 7-29]: the “activity against CDK2” value in assay [4] is “no significant activity”. In addition, the “activity against Nek2” value in assay [5] is given as “no significant activity”. The IC50 in [6] amounted to 4.83 µM; in assay [1] (Homo sapiens, Table IX (results)), 2.29 µM. For the same compound, the “activity against Able” value in assay [7] was “no significant activity”. Besides, in [8], the “activity against Plk3” value is “no significant activity”. The “activity against c-Kit” value in assay [9] is listed as “no significant activity”. For the same compound, the “activity against EGFR” value in [10] is recorded as “no significant activity”. Further, the “activity against Jak2” value in assay [11] is given as “no significant activity”. For the same compound, the “activity against CDK1” value in assay [12] was “no significant activity”. For the same compound, the EC50 in [2] was found to be 0.0079 µM. Besides, the “activity against Aurora-A” value in [13] is recorded as “no significant activity”.
For the compound `FC(F)(F)Oc1cccc(-c2cnc3ccc(NCCN4CCCC4)nn23)c1` [Compound 7-30, N-(2-(pyrrolidin-1-yl)ethyl)-3-(3-(trifluoromethoxy)phenyl)imidazol[1,2-b]pyridazin-6-amine], the IC50 was found to be 9.26 µM in assay [6], 9.14 µM in assay [1] (setting [14]) and 761 nM in assay [3] (values in nM).
As for `CC[C@@H](CO)Nc1ccc2ncc(-c3cccc(OC(F)(F)F)c3)n2n1` [Compound 7-32, (S)-2-(3-(3-(trifluoromethoxy)phenyl)imidazo[1,2-b]pyridazin-6-ylamino)butan-1-ol], the IC50 in [6] was 29 µM; in assay [1] (setting [14]), 25.3 µM; in assay [1] (Table IX (results)), 20 µM; in assay [3] (values in nM), 95 nM; in assay [3] (values in uM), 1550 nM.
As for `CN1CCC(COc2ccc3ncc(-c4cccc(OC(F)(F)F)c4)n3n2)CC1` [Compound 7-33, 6-((1-methylpiperidin-4-yl)methoxy)-3-(3-(trifluoromethoxy)phenyl)imidazo[1,2-b]pyridazine], the IC50 in [6] was 14.4 µM; in assay [1] (setting [14]) it was 5.99 µM; in assay [3] (values in nM), 405 nM and 282 nM.
As to `Cc1cc2ncc(-c3cccc(OC(F)(F)F)c3)n2nc1OCC1CCN(C)CC1` [Compound 7-34, 7-methyl-6-((1-methylpiperidin-4-yl)methoxy)-3-(3(trifluoromethoxy)phenyl) imidazo[1,2-b]pyridazine], the values for the IC50 in assay [6], in [1] (setting [14]) and in assay [3] (values in nM) were 7.21 µM, 1.73 µM and 272 nM, respectively.
Take `O=C(C1CC1)N1CCC(CNc2ccc3ncc(-c4cccc(OC(F)(F)F)c4)n3n2)CC1` [Compound 7-36, Cyclopropyl(4-((3-(3-(trifluoromethoxy)phenyl)imidazo[1,2-b]pyridazin-6-ylamino)methyl)piperidin-1-yl)methanone]: the IC50 in assay [6] was found to be 33.3 µM; in assay [1] (setting [14]), 6.91 µM; in assay [3] (values in nM) it was 73 nM.
`Cc1cc2ncc(-c3cccc(OC(F)(F)F)c3)n2nc1NCC1CCN(C)CC1` [Compound 7-37, 7-Methyl-N-((1-methylpiperidin-4-yl)methyl)-3-(3-(trifluoromethoxy)phenyl)-imidazo[1,2-b]pyridazin-6-amine]: the IC50 in [6] was 8.95 µM; in [1] (setting [14]), 3.89 µM; in assay [3] (values in nM), 13 nM.
The matching figures for `CCN1CCC(CNc2ccc3ncc(-c4cc(OC(F)(F)F)ccc4O)n3n2)CC1` [Compound 7-47, N-((1-ethylpiperidin-4-yl)methyl)-3-(2-hydroxy-5-(trifluoromethoxy)phenyl)-imidazo[1,2-b]pyridazin-6-amine]: 57.4 µM, 11.3 µM and 310 nM.
